Test results published in the supplement of paper PMC4862054.
Where “and” joins values, the source holds several entries; their conditions need not be identical. Equal entries are not always repeated.

Assays:
Settings in all cases: incubation time: 72 h
BT-474 [1] = assay: normalised response (% of control), CellTiter-Glo; higher = more viable cells (100 = DMSO, 0 = benzethonium chloride kill control)
How it was run: (§1)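 Normalised signals at single concentrations make up the values. They come from breast cancer cell lines seeded (20 µl suspension) into 384-well plates with compound at 5 concentrations in 10-fold steps over a compound-specific 10,000-fold range, incubated 72 h, and read for CellTox Green fluorescence then CellTiter-Glo luminescence. Each plate was normalised to 0.1 % DMSO (100) and a positive kill control (0).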

BT-549 [2] = assay: as above
How it was run: as §1

CAL-120 [3] = assay: as above
How it was run: as §1

CAL-148 [4] = assay: as above
How it was run: as §1

CAL-51 [5] = assay: as above
How it was run: as §1

CAL-85-1 [6] = assay: as above
How it was run: as §1

DU-4475 [7] = assay: as above
How it was run: as §1

HCC1143 [8] = assay: as above
How it was run: as §1

HCC1599 [9] = assay: as above
How it was run: as §1

HCC1937 [10] = assay: as above
How it was run: as §1

HDQ-P1 [11] = assay: as above
How it was run: as §1

Hs578T [12] = assay: as above
How it was run: as §1

MCF-10A = assay: as above
How it was run: as §1

MDA-MB-231 [13] = assay: as above
How it was run: as §1

MDA-MB-436 [14] = assay: as above
How it was run: as §1

MDA-MB-453 [15] = assay: as above
How it was run: as §1

MDA-MB-468 [16] = assay: as above
How it was run: as §1

MFM-223 [17] = assay: as above
How it was run: as §1

SK-BR-3 [18] = assay: as above
How it was run: as §1

BT-474 [19] = assay: normalised viability (% of control), CellTiter-Blue; higher = more viable cells (100 = DMSO, 0 = benzethonium chloride kill control)
How it was run: (§2)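 Breast cancer cell lines in 20 µl suspension were seeded onto 384-well plates pre-loaded with compound dissolved in 5 µl medium, then incubated 72 h. CellTiter-Blue reagent (2.5 µl) was added for 2 h at 37 °C and fluorescence read at 560/590 nm. Each plate was normalised to vehicle (100) and a positive kill control (0), with Z'-factor quality control. The value is normalised viability at one listed concentration of the series.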

BT-549 [20] = assay: as above
How it was run: as §2

CAL-120 [21] = assay: as above
How it was run: as §2

CAL-148 [22] = assay: as above
How it was run: as §2

CAL-51 [23] = assay: as above
How it was run: as §2

CAL-85-1 [24] = assay: as above
How it was run: as §2

DU-4475 [25] = assay: as above
How it was run: as §2

HCC1143 [26] = assay: as above
How it was run: as §2

HCC1599 [27] = assay: as above
How it was run: as §2

HCC1937 [28] = assay: as above
How it was run: as §2

HDQ-P1 [29] = assay: as above
How it was run: as §2

Hs578T [30] = assay: as above
How it was run: as §2

MDA-MB-231 [31] = assay: as above
How it was run: as §2

MDA-MB-436 [32] = assay: as above
How it was run: as §2

MDA-MB-453 [33] = assay: as above
How it was run: as §2

MDA-MB-468 [34] = assay: as above
How it was run: as §2

MFM-223 [35] = assay: as above
How it was run: as §2

SK-BR-3 [36] = assay: as above
How it was run: as §2

Row | SMILES | normalised response (BT-474 [1]) | normalised response (BT-549 [2]) | normalised response (CAL-120 [3]) | normalised response (CAL-148 [4]) | normalised response (CAL-51 [5]) | normalised response (CAL-85-1 [6]) | normalised response (DU-4475 [7]) | normalised response (HCC1143 [8]) | normalised response (HCC1599 [9]) | normalised response (HCC1937 [10]) | normalised response (HDQ-P1 [11]) | normalised response (Hs578T [12]) | normalised response (MCF-10A) | normalised response (MDA-MB-231 [13]) | normalised response (MDA-MB-436 [14]) | normalised response (MDA-MB-453 [15]) | normalised response (MDA-MB-468 [16]) | normalised response (MFM-223 [17]) | normalised response (SK-BR-3 [18]) | normalised viability (BT-474 [19]) | normalised viability (BT-549 [20]) | normalised viability (CAL-120 [21]) | normalised viability (CAL-148 [22]) | normalised viability (CAL-51 [23]) | normalised viability (CAL-85-1 [24]) | normalised viability (DU-4475 [25]) | normalised viability (HCC1143 [26]) | normalised viability (HCC1599 [27]) | normalised viability (HCC1937 [28]) | normalised viability (HDQ-P1 [29]) | normalised viability (Hs578T [30]) | normalised viability (MDA-MB-231 [31]) | normalised viability (MDA-MB-436 [32]) | normalised viability (MDA-MB-453 [33]) | normalised viability (MDA-MB-468 [34]) | normalised viability (MFM-223 [35]) | normalised viability (SK-BR-3 [36])
1 | O=C(c1cc(Cc2n[nH]c(=O)c3ccccc23)ccc1F)N1CCN(C(=O)C2CC2)CC1 [Olaparib] (1 nM) | 96.7% | 103% | 92.4% | 93% | 114% | 103% | 102% | 93.1% | 101% | 90.5% | 95.9% | 99.9% | 92.8% | 99.1% | 104% | 103% | 99% | 96.7% | 102% | 85.8% | 86% | 73.8% | 87.1% | 103% | 87.6% | 94.1% | 88.4% | 89.9% | 102% | 96.9% | 99.7% | 84.8% | 113% | 92.7% | 95.3% | 91% | 91.2%
2 | CO[C@H](C(=O)[C@@H](O)[C@@H](C)O)[C@@H]1Cc2cc3cc(O[C@H]4C[C@@H](O[C@@H]5C[C@@H](O)[C@H](O)[C@@H](C)O5)[C@H](O)[C@@H](C)O4)c(C)c(O)c3c(O)c2C(=O)[C@H]1O[C@H]1C[C@@H](O[C@@H]2C[C@@H](O)[C@@H](O[C@@H]3C[C@](C)(O)[C@H](O)[C@@H](C)O3)[C@@H](C)O2)[C@H](O)[C@@H](C)O1 [Plicamycin] (1 nM) | 104% | 102% | 113% | 112% | 92.5% | 102% | 107% | 92.6% | 102% | 96.9% | 101% | 102% | 103% | 99.8% | 95% | 108% | 113% | 106% | 108% | 106% and 92.2% | 93% and 90.1% | 82.5% and 79.1% | 111% and 108% | 102% and 112% | 87.5% and 82.1% | 112% and 109% | 96.8% and 82.4% | 101% and 107% | 97.7% and 85% | 111% | 113% and 92.7% | 94% and 98.7% | 108% and 92.6% | 95.5% and 109% | 96.7% and 101% | 91.7% and 84.2% | 93.3% and 88.4%
3 | C[C@]12C=CC(=O)C=C1CC[C@@H]1[C@@H]2C(=O)C[C@@]2(C)[C@H]1CC[C@]2(O)C(=O)CO [Prednisone] (1 nM) | 99.4% | 99.8% | 109% | 106% | 92.7% | 99.1% | 103% | 101% | 100% | 99.9% | 101% | 97.1% | 98.2% | 98.5% | 110% | 111% | 104% | 106% | 109% | 126% | 105% | 84.3% | 101% | 99.5% | 100% | 110% | 92.8% | 113% | 93.5% | 98.1% | 104% | 95.9% | 110% | 103% | 104% | 96.2% | 90.8%
4 | CO[C@H]1C[C@@H]2CC[C@@H](C)[C@@](O)(O2)C(=O)C(=O)N2CCCC[C@H]2C(=O)O[C@H]([C@H](C)C[C@@H]2CC[C@@H](O)[C@H](OC)C2)CC(=O)[C@H](C)/C=C(\C)[C@@H](O)[C@@H](OC)C(=O)[C@H](C)C[C@H](C)/C=C/C=C/C=C/1C [Sirolimus] (0.1 nM) | 101% | 89.9% | 94% | 101% | 96.3% | 96.1% | 98.9% | 102% | 108% | 103% | 100% | 102% | 108% | 96.9% | 94.3% | 95% | 93.8% | 100% | 91.1% | 84.2% | 88% | 102% | 105% | 78.8% | 93.9% | 94.8% | 105% | 91.9% | 85.3% | 100% | 74.4% | 85.2% | 103% | 99.4% | 94.3% | 80.3% | 90.8%
5 | CN1CCN(c2nc(C3=C(c4c[nH]c5ccccc45)C(=O)NC3=O)c3ccccc3n2)CC1 [Sotrastaurin] (1 nM) | 90.6% | 103% | 97% | 94.8% | 100% | 93% | 97.5% | 89.9% | 89.5% | 99% | 99.8% | 99.2% | 88% | 98% | 94% | 96.9% | 104% | 93% | 93.3% | 116% | 86.1% | 117% | 116% | 97% | 109% | 104% | 131% | 95.2% | 89.5% | 85.2% | 101% | 94.1% | 104% | 102% | 97.7% | 100% | 91.3%
6 | CC/C(=C(\c1ccccc1)c1ccc(OCCN(C)C)cc1)c1ccccc1 [Tamoxifen] (1 nM) | 105% | 96.4% | 99% | 103% | 99.3% | 101% | 98.6% | 109% | 94.3% | 102% | 103% | 102% | 111% | 106% | 109% | 110% | 104% | 102% | 103% | 81.7% | 81.6% | 104% | 113% | 90.2% | 110% | 104% | 104% | 84.7% | 88.8% | 105% | 118% | 95.1% | 96% | 107% | 106% | 93.3% | 102%
7 | COc1cc2c(N3CCN(C(=O)Nc4ccc(OC(C)C)cc4)CC3)ncnc2cc1OCCCN1CCCCC1 [Tandutinib] (0.1 nM) | 107% | 99.8% | 101% | 102% | 82.2% | 101% | 104% | 97.9% | 113% | 92.9% | 111% | 97.3% | 95.5% | 104% | 97.3% | 96.1% | 104% | 105% | 96.7% | 114% | 111% | 98.7% | 107% | 107% | 101% | 109% | 103% | 98% | 67.1% | 116% | 120% | 85.3% | 104% | 102% | 105% | 96.7% | 106%
